Assay results published in PubChem BioAssay AID192 (DTP/NCI, 2004).
Values joined by “and” are separate entries in the source; they are usually repeats but may differ in a detail not shown here. Identical values can stand only once. Toxic doses and inconclusive results are not listed. Rule for the calls: active = survival T/C of 150% or more; inactive = T/C below 125% in these data. Square brackets hold non-standard residues; d marks the D form. Peptide text beside a SMILES is read from it. * marks the point of attachment. ξ: configuration not given here. Cbz = O=C(OCc1ccccc1)*; ξI = CCC(C)C(N)C(=O)O

System: BDF1 mice, B16 melanoma ip, median survival T/C
Assay: NCI In Vivo Anticancer Drug Screen. Data for tumor model B16 Melanoma (intraperitoneal) in B6D2F1 (BDF1) mice
Settings: endpoint: median survival time, higher = longer survival
Procedure, shortened: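 Antitumor activity is assessed in mice bearing a transplanted tumor, with survival or tumor size compared against vehicle-dosed controls and expressed as T/C.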

[1] = dose: 12.5 mg/kg/injection, schedule: Q01DX009 (ip), vehicle: saline
[2] = dose: 25.0 mg/kg/injection, schedule: Q01DX009 (ip), vehicle: saline
[3] = dose: 50.0 mg/kg/injection, schedule: Q01DX009 (ip), vehicle: saline
[4] = dose: 50.0 mg/kg/injection, schedule: Q01DX009 (ip), vehicle: saline with Tween-80
[5] = dose: 100.0 mg/kg/injection, schedule: Q01DX009 (ip), vehicle: saline with Tween-80
[6] = dose: 100.0 mg/kg/injection, schedule: Q04DX003 (ip), vehicle: saline with Tween-80
[7] = dose: 400.0 mg/kg/injection, schedule: Q04DX003 (ip), vehicle: saline with Tween-80
[8] = dose: 200.0 mg/kg/injection, schedule: Q01DX009 (ip), vehicle: saline with Tween-80
[9] = dose: 400.0 mg/kg/injection, schedule: Q01DX009 (ip), vehicle: saline with Tween-80

Measured: T/C

NCCC(=O)OC1CCCc2c(O)c3c(c(O)c21)C(=O)c1ccccc1C3=O (stereo not drawn)
inactive: [1] 96 % of control | [2] 100 % of control | [3] 93 % of control

CCC(C)C1NC(=O)C(NC(=O)c2c3nc4c(C(=O)NC5C(=O)NC(C(C)CC)C(=O)N6CCCC6C(=O)N(C)CC(=O)N(C)C(C(C)C)C(=O)OC5C)cc([N+](=O)[O-])c(C)c4oc-3c(C)c(=O)c2N)C(C)OC(=O)C(C(C)C)N(C)C(=O)CN(C)C(=O)C2CCCN2C1=O (stereo not drawn)
inactive: dose: 25.0 micrograms/kg/injection, schedule: Q01DX009 (ip), vehicle: water 110 % of control | dose: 50.0 micrograms/kg/injection, schedule: Q01DX009 (ip), vehicle: water 119 % of control | dose: 100.0 micrograms/kg/injection, schedule: Q01DX009 (ip), vehicle: water 124 % of control
active: dose: 400.0 micrograms/kg/injection, schedule: Q01DX009 (ip), vehicle: water 160 % of control

COc1cccc(/C=C/C(=O)O)c1OC
inactive: dose: 50.0 mg/kg/injection, schedule: Q01DX009 (ip), vehicle: other 101 % of control | dose: 100.0 mg/kg/injection, schedule: Q01DX009 (ip), vehicle: other 107 % of control | dose: 200.0 mg/kg/injection, schedule: Q01DX009 (ip), vehicle: other 98 % of control | dose: 400.0 mg/kg/injection, schedule: Q01DX009 (ip), vehicle: other 93 % of control

NC(=O)c1ccc(-c2c3ccccc3cc3c2ccc2ccccc23)cc1
inactive: [4] 101 % of control | [5] 96 % of control

CS(=O)(=O)OCCCCOS(C)(=O)=O
inactive: dose: 3.13 mg/kg/injection, schedule: Q01DX009 (ip), vehicle: saline 108 % of control | dose: 6.25 mg/kg/injection, schedule: Q01DX009 (ip), vehicle: saline 105 % of control | dose: 12.5 mg/kg/injection, schedule: Q01DX009 (ip), vehicle: Klucel (hydroxypropylcellulose) (HPC) 106 % of control and 107 % of control | dose: 12.5 mg/kg/injection, schedule: Q01DX009 (ip), vehicle: saline with Tween-80 97 % of control and 100 % of control and 102 % of control | [1] 95 % of control and 105 % of control

CC(=O)OCC1OC(n2cnc3c(=S)nc[nH]c32)C(OC(C)=O)C1OC(C)=O (stereo not drawn)
inactive: dose: 50.0 mg/kg/injection, schedule: Q01DX009 (ip), vehicle: suspension in saline 114 % of control | dose: 100.0 mg/kg/injection, schedule: Q01DX009 (ip), vehicle: suspension in saline 109 % of control | [6] 106 % of control | dose: 200.0 mg/kg/injection, schedule: Q04DX003 (ip), vehicle: saline with Tween-80 100 % of control | [7] 91 % of control

Cc1cc(C)c(OC2=C(c3c(C)cc(C)cc3C)C(=O)c3ccccc32)c(C)c1
inactive: [4] 104 % of control | [5] 100 % of control | [8] 98 % of control | [9] 91 % of control

Cc1cc(=O)[nH]c(Nc2ccccc2)n1
inactive: [5] 105 % of control | [8] 92 % of control | [9] 102 % of control

CCOC(=O)/C(Cc1cc[n+]([O-])c2ccccc12)=N/O
inactive: dose: 100.0 mg/kg/injection, schedule: Q04DX003 (ip), vehicle: Klucel (hydroxypropylcellulose) (HPC) 88 % of control | dose: 200.0 mg/kg/injection, schedule: Q04DX003 (ip), vehicle: Klucel (hydroxypropylcellulose) (HPC) 97 % of control | dose: 400.0 mg/kg/injection, schedule: Q04DX003 (ip), vehicle: Klucel (hydroxypropylcellulose) (HPC) 88 % of control

C[n+]1cccc(O)c1
inactive: dose: 100.0 mg/kg/injection, schedule: Q04DX003 (ip), vehicle: saline 95 % of control | dose: 200.0 mg/kg/injection, schedule: Q04DX003 (ip), vehicle: saline 97 % of control | dose: 400.0 mg/kg/injection, schedule: Q04DX003 (ip), vehicle: saline 102 % of control

CNCCN(C)CCN(C)Cc1ccc(OC)cc1
inactive: [3] 103 % of control | dose: 100.0 mg/kg/injection, schedule: Q01DX009 (ip), vehicle: saline 106 % of control | dose: 200.0 mg/kg/injection, schedule: Q01DX009 (ip), vehicle: saline 106 % of control

O=C(O)c1ccc(Nc2c3ccccc3nc3ccccc23)cc1
active: dose: 42.0 mg/kg/injection, schedule: Q01DX009 (ip), vehicle: other 160 % of control | dose: 44.0 mg/kg/injection, schedule: Q01DX009 (ip), vehicle: Klucel (hydroxypropylcellulose) (HPC) 169 % of control | dose: 44.0 mg/kg/injection, schedule: Q01DX009 (ip), vehicle: saline with Tween-80 156 % of control
inactive: dose: 8.0 mg/kg/injection, schedule: Q01DX009 (ip), vehicle: other 103 % of control | dose: 12.0 mg/kg/injection, schedule: Q01DX009 (ip), vehicle: other 117 % of control | dose: 13.0 mg/kg/injection, schedule: Q01DX009 (ip), vehicle: saline with Tween-80 119 % of control | dose: 28.0 mg/kg/injection, schedule: Q01DX009 (ip), vehicle: other 117 % of control

COc1c(Br)c2c(c(OC)c1OC)-c1ccc(OC)c(=O)cc1C(NC(C)=O)CC2 (stereo not drawn)
inactive: dose: 0.38 mg/kg/injection, schedule: Q01DX009 (ip), vehicle: Klucel (hydroxypropylcellulose) (HPC) 113 % of control | dose: 0.75 mg/kg/injection, schedule: Q01DX009 (ip), vehicle: Klucel (hydroxypropylcellulose) (HPC) 115 % of control | dose: 1.5 mg/kg/injection, schedule: Q01DX009 (ip), vehicle: Klucel (hydroxypropylcellulose) (HPC) 112 % of control | dose: 3.0 mg/kg/injection, schedule: Q01DX009 (ip), vehicle: Klucel (hydroxypropylcellulose) (HPC) 118 % of control

C/C=C(/C)C(=O)O[C@H]1CCN2CC=C(COC(=O)[C@@](O)([C@H](C)OC)C(C)(C)O)[C@H]12
inactive: [1] 114 % of control | [2] 104 % of control

O=c1c(O)c(-c2cc(O)c(O)c(O)c2)oc2cc(O)cc(O)c12
inactive: dose: 25.0 mg/kg/injection, schedule: Q02DX009 (ip), vehicle: saline with Tween-80 95 % of control | dose: 50.0 mg/kg/injection, schedule: Q02DX009 (ip), vehicle: saline with Tween-80 110 % of control | dose: 100.0 mg/kg/injection, schedule: Q02DX009 (ip), vehicle: saline with Tween-80 105 % of control

CCC(C)C(NC(=O)CNC(=O)CNC(=O)OCc1ccccc1)C(=O)O (stereo not drawn) (Cbz-Gly-Gly-[ξI]-OH)
inactive: [4] 94 % of control | [5] 92 % of control | [8] 91 % of control | [9] 86 % of control

C(=N\C(/N=C/c1ccco1)c1ccco1)/c1ccco1
inactive: dose: 40.0 mg/kg/injection, schedule: Q01DX009 (ip), vehicle: Klucel (hydroxypropylcellulose) (HPC) 94 % of control | dose: 80.0 mg/kg/injection, schedule: Q01DX009 (ip), vehicle: Klucel (hydroxypropylcellulose) (HPC) 89 % of control | dose: 160.0 mg/kg/injection, schedule: Q01DX009 (ip), vehicle: Klucel (hydroxypropylcellulose) (HPC) 97 % of control | dose: 320.0 mg/kg/injection, schedule: Q01DX009 (ip), vehicle: Klucel (hydroxypropylcellulose) (HPC) 92 % of control

CC1(C#N)CCc2c(ccc3ccccc23)C1=O (stereo not drawn)
inactive: dose: 50.0 mg/kg/injection, schedule: Q04DX003 (ip), vehicle: other 122 % of control | dose: 100.0 mg/kg/injection, schedule: Q04DX003 (ip), vehicle: other 107 % of control | [6] 95 % of control | [7] 95 % of control

CCCCCCCCCC(=O)OCCN1CCN(CCCN2c3ccccc3Sc3ccc(C(F)(F)F)cc32)CC1
inactive: dose: 0.09 mg/kg/injection, schedule: Q01DX009 (ip), vehicle: alcohol 97 % of control | dose: 0.19 mg/kg/injection, schedule: Q01DX009 (ip), vehicle: alcohol 123 % of control | dose: 0.39 mg/kg/injection, schedule: Q01DX009 (ip), vehicle: alcohol 111 % of control

O=NN(CCF)C(=O)NC1CCCCC1
active: dose: 60.0 mg/kg/injection, schedule: Q01DX001 (ip), vehicle: saline + alcohol 171 % of control | dose: 120.0 mg/kg/injection, schedule: Q01DX001 (ip), vehicle: saline + alcohol 166 % of control
inactive: dose: 7.5 mg/kg/injection, schedule: Q01DX001 (ip), vehicle: saline + alcohol 115 % of control | dose: 15.0 mg/kg/injection, schedule: Q01DX001 (ip), vehicle: saline + alcohol 106 % of control | dose: 30.0 mg/kg/injection, schedule: Q01DX001 (ip), vehicle: saline + alcohol 119 % of control

COC(=O)[C@H]1[C@H]2C[C@@H]3c4[nH]c5ccccc5c4CCN3C[C@H]2C[C@@H](OC(=O)c2cc(OC)c(OC)c(OC)c2)[C@@H]1OC
inactive: dose: 3.0 micrograms/kg/injection, schedule: Q01DX009 (ip), vehicle: saline 90 % of control | dose: 6.0 micrograms/kg/injection, schedule: Q01DX009 (ip), vehicle: saline 98 % of control | dose: 13.0 micrograms/kg/injection, schedule: Q01DX009 (ip), vehicle: saline 95 % of control | dose: 27.0 micrograms/kg/injection, schedule: Q01DX009 (ip), vehicle: saline 95 % of control | dose: 55.0 micrograms/kg/injection, schedule: Q01DX009 (ip), vehicle: saline 86 % of control

[Br][Ga]([Br])[Br]
inactive: [1] 101 % of control | [2] 96 % of control | [3] 96 % of control
